This is an account of results in patent US7772267B2, “Bicyclic modulators of androgen receptor function” (Bristol-Myers Squibb Company, priority 2002, dated 2010).

Broadly, the melting point is the temperature, or range, at which the solid turns liquid.

For one series, the target named is T1, AR (Rattus norvegicus, UniProt P15207).
T1 sequence (P15207 1-902): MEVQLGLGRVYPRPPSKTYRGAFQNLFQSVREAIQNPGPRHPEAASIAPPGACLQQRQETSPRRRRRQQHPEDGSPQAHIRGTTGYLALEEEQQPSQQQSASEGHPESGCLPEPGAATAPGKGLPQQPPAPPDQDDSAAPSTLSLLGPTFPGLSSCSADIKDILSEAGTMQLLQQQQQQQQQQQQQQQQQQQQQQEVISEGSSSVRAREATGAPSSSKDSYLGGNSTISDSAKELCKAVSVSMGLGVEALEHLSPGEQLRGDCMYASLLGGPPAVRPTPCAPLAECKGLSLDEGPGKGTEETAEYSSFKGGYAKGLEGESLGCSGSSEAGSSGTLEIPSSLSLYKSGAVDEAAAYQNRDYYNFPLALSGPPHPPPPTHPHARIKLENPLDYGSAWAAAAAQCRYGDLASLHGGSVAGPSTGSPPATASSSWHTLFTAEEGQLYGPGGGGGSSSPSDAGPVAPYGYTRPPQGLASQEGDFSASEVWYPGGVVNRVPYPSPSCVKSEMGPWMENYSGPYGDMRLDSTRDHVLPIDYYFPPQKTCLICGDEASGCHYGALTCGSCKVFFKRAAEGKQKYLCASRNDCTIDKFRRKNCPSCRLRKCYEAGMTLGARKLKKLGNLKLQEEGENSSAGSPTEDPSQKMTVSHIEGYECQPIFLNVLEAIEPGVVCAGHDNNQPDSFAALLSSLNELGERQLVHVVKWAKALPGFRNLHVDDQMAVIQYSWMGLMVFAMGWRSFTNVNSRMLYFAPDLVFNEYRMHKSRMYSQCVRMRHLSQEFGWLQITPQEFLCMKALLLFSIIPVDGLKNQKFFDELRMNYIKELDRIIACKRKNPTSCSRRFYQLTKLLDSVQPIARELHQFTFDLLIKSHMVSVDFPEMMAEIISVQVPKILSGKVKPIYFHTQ
The source says:
The activity of compounds of the present invention as AR agonists was investigated in an immature male rat model, a recognized test of anabolic effects in muscle and sustaining effects in sex organs for a given compound, as described in L. G. Hershberger et al., Proc. Soc. […] Biol. Med., 83, 175 (1953); B. L. Beyler et al, “Methods for evaluating anabolic and catabolic agents in laboratory animals”, J. Amer. Med. Women's Ass., 23, 708 (1968); H. Fukuda et al., “Investigations of the levator ani muscle as an anabolic steroid assay”, Nago Dai. Yak. Ken. Nem. 14, 84 (1966) the disclosures of which are herein incorporated by reference.
The basis of this assay lies in the well-defined action of androgenic agents on the maintenance and growth of muscle tissues and sexual accessory organs in animals and man. […] J. Anat. […] I. Quantitative data” Boll.-Soc. Ital. Biol. Sper. […] II. Electron-microscopic observations” Boll.-Soc. Ital. Biol. Sper. 42, 1600 (1966); A. Boris et al., Steroids 15, 61 (1970). As described above, the effects of androgens on maintenance of male sexual accessory organs, such as the prostate and seminal vesicles, is well described. Castration results in rapid involution and atrophy of the prostate and seminal vesicles. This effect can be reversed by exogenous addition of androgens. […]

For series [1], the system named is endogenous glucocorticoid receptor (A549 cells). Briefly: In vitro assay to measure GR-induced AP-1 transrepression (luciferase reporter in A549 cells). Format: cell-based. Particulars: at a concentration of ≦10 µM; typical value for the positive control. On the procedure:
The AP-1 assay is a cell-based luciferase reporter assay. A549 cells, which contain endogenous glucocorticoid receptor, were stably transfected with an AP-1 DNA binding site attached to the luciferase gene. Cells are then grown in RPMI+10% fetal calf serum (charcoal-treated)+Penicillin/Streptomycin with 0.5 mg/mL geneticin. Cells are plated the day before the assay at approximately 40000 cells/well. On assay day, the media is removed by aspiration and 20 μL assay buffer (RPMI without phenol red+10% FCS (charcoal-treated)+Pen/Strep) is added to each well. At this point either 20 μL assay buffer (control experiments), the compounds of the present invention (“test compounds”) (dissolved in DMSO and added at varying concentrations) or dexamethasome (100 nM in DMSO, positive control) are added to each well. The plates are then pre-incubated for 15 min at 37° C., followed by stimulation of the cells with 10 ng/mL PMA. The plates are then incubated for 7 h at 37° C. after which 40 μL luciferase substrate reagent is added to each well. Activity is measured by analysis in a luminometer as compared to control experiments treated with buffer or dexamethasome. […] The control, dexamethasone, at a concentration of ≦10 µM typically suppresses activity by 65%.
For orientation: In a reporter assay the amount or activity of a reporter protein is the signal.

Take `Cc1c(N2C[C@@H]3[C@@H](O)CCN3C2=O)ccc(C#N)c1Cl`: the melting point lay in the range of 148 to 149 °C. Turning to `CCC(=O)O[C@H]1CC[C@H]2[C@@H]3CCC4=CC(=O)CC[C@]4(C)[C@H]3CC[C@]12C` [TP, Testosterone Propionate], the “EC50 (increase in organ weight)” value on AR (castrated rats, organ weight increase) is about 0.03 mg. Also, the “potency relative to free T” value at AR (higher potency than free T) is reported as 10-30 fold.

`C[C@@H]1C[C@H]2[C@@H]3CCC4=CC(=O)C=C[C@]4(C)[C@@]3(F)[C@@H](O)C[C@]2(C)[C@@]1(O)C(=O)CO` [dexamethasone]: in series [1], the “suppression of activity (% inhibition of the reporter system vs buffer control with 10 ng/mL PMA alone)” value is 65%.
